Reference: the supplement of paper PMC10307832

Key:
Test in all cases: relative viability (nuclei count vs DMSO), 5 days (fraction); higher = more cells survive
Imatinib + Palbociclib = compound: Cc1ccc(NC(=O)c2ccc(CN3CCN(C)CC3)cc2)cc1Nc1nccc(-c2cccnc2)n1 [Imatinib] + CC(=O)c1c(C)c2cnc(Nc3ccc(N4CCNCC4)cn3)nc2n(C2CCCC2)c1=O [Palbociclib] (partner 0.5 µM)
Method in brief: (§1)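 Relative viability equals treated-well nuclei counts divided by vehicle-well nuclei counts. Counts came from 4× images of lung cancer cell lines grown in 1536-well plates for 5 days after pin-tool dosing on the day after seeding. Dosing used one drug alone or a fixed anchor-drug dose plus five library-drug doses (not always all listed) in √10 steps, and values are medians of duplicate plates.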

Imatinib + Phenformin = compound: Cc1ccc(NC(=O)c2ccc(CN3CCN(C)CC3)cc2)cc1Nc1nccc(-c2cccnc2)n1 [Imatinib] + N=C(N)NC(=N)NCCc1ccccc1 [Phenformin] (partner 250 µM)
Method in brief: as §1

Imatinib + AZD7762 = compound: Cc1ccc(NC(=O)c2ccc(CN3CCN(C)CC3)cc2)cc1Nc1nccc(-c2cccnc2)n1 [Imatinib] + NC(=O)Nc1cc(-c2cccc(F)c2)sc1C(=O)N[C@H]1CCCNC1 [AZD7762] (partner 0.2 µM)
Method in brief: as §1

Imatinib + Navitoclax = compound: Cc1ccc(NC(=O)c2ccc(CN3CCN(C)CC3)cc2)cc1Nc1nccc(-c2cccnc2)n1 [Imatinib] + CC1(C)CCC(c2ccc(Cl)cc2)=C(CN2CCN(c3ccc(C(=O)NS(=O)(=O)c4ccc(N[C@H](CCN5CCOCC5)CSc5ccccc5)c(S(=O)(=O)C(F)(F)F)c4)cc3)CC2)C1 [Navitoclax] (partner 0.5 µM)
Method in brief: as §1

Cell Line | relative viability (Imatinib + Palbociclib; first compound 0.02 µM) | relative viability (Imatinib + Palbociclib; first compound 0.2 µM) | relative viability (Imatinib + Palbociclib; first compound 0.6325 µM) | relative viability (Imatinib + Palbociclib; first compound 2 µM) | relative viability (Imatinib + Phenformin; first compound 0.02 µM) | relative viability (Imatinib + Phenformin; first compound 0.2 µM) | relative viability (Imatinib + Phenformin; first compound 0.6325 µM) | relative viability (Imatinib + Phenformin; first compound 2 µM) | relative viability (Imatinib + AZD7762; first compound 0.02 µM) | relative viability (Imatinib + AZD7762; first compound 0.2 µM) | relative viability (Imatinib + AZD7762; first compound 0.6325 µM) | relative viability (Imatinib + AZD7762; first compound 2 µM) | relative viability (Imatinib + Navitoclax; first compound 0.02 µM) | relative viability (Imatinib + Navitoclax; first compound 0.2 µM) | relative viability (Imatinib + Navitoclax; first compound 0.6325 µM) | relative viability (Imatinib + Navitoclax; first compound 2 µM) | relative viability (Imatinib + Navitoclax; first compound 0.06325 µM) | relative viability (Imatinib + Palbociclib; first compound 0.06325 µM) | relative viability (Imatinib + Phenformin; first compound 0.06325 µM) | relative viability (Imatinib + AZD7762; first compound 0.06325 µM)
NCI-H1355 | 0.433 | 0.426 | 0.398 | 0.39 | 0.493 | 0.461 | 0.409 | 0.391 | 0.988 | 0.83 | 0.63 | 0.571 | 1.06 | 0.99 | 0.922 | 0.947 | – | – | – | –
NCI-H727 | 0.577 | 0.599 | 0.569 | 0.601 | 0.653 | 0.876 | 0.522 | 0.522 | 0.651 | 0.506 | 0.573 | 0.507 | 0.324 | 0.4 | 0.412 | 0.417 | 0.398 | – | – | –
RERF-LC-KJ | 1.11 | 1.07 | 0.981 | 1.09 | 0.49 | 0.432 | 0.407 | 0.428 | 1.01 | 1.19 | 0.88 | 0.967 | 1.09 | 1 | 0.83 | 0.954 | 0.999 | 1.23 | 0.472 | 0.523
PC-3 [JPC-3] | 0.581 | – | 0.763 | 0.539 | 0.474 | 0.485 | 0.454 | 0.414 | 0.979 | – | 0.921 | 0.635 | 0.84 | 0.789 | 0.811 | 0.687 | – | – | – | –
PC-14 | 0.655 | 0.558 | 0.524 | 0.542 | 0.626 | 0.586 | 0.374 | 0.656 | 0.465 | 0.338 | 0.453 | 0.334 | 1.14 | 1.12 | 1.06 | 0.96 | 0.988 | 0.633 | 0.802 | 0.477
NCI-H1793 | 0.293 | 0.315 | 0.291 | 0.307 | 0.388 | 0.375 | 0.284 | 0.257 | 0.463 | 0.279 | 0.286 | 0.197 | 0.378 | 0.409 | 0.362 | 0.513 | – | – | – | –
ChaGo-K-1 | 0.988 | 0.982 | 0.871 | 0.879 | 0.425 | 0.505 | 0.426 | 0.432 | 0.979 | 0.941 | 0.791 | 0.943 | 1.04 | – | 1.37 | 1.09 | 0.927 | – | 0.485 | –
A-427 | 0.533 | 0.51 | 0.514 | 0.543 | 0.327 | 0.316 | 0.27 | 0.237 | 0.812 | 0.634 | 0.654 | 0.572 | 1.05 | 0.998 | 0.945 | 0.949 | – | 0.555 | – | 0.84
NCI-H1993 | 0.684 | 0.674 | 0.723 | 0.699 | 0.56 | 0.519 | 0.485 | 0.52 | 1.08 | 0.724 | 0.736 | 0.701 | – | 0.953 | 0.851 | 0.776 | 1 | 0.677 | 0.506 | 0.728
H3255 | 0.316 | 0.317 | 0.338 | 0.308 | 0.326 | 0.378 | 0.335 | 0.376 | 1.02 | – | 0.95 | 0.842 | 0.512 | 0.44 | 0.497 | 0.548 | 0.441 | 0.325 | 0.377 | 0.784
NCI-H838 | 0.254 | 0.241 | 0.254 | 0.247 | 0.555 | 0.64 | 0.619 | 0.596 | 1.04 | 0.961 | 0.954 | 1.02 | 1.34 | 1.34 | 1.14 | 1.28 | 1.54 | 0.255 | 0.668 | 1.03
LXF-289 | 0.602 | 0.655 | 0.556 | 0.578 | 0.531 | 0.552 | 0.51 | 0.502 | 1.13 | 1.25 | 1.04 | 1.09 | 0.98 | 1.08 | 0.907 | 0.924 | 0.944 | – | 0.491 | –
HCC-15 | 0.496 | 0.822 | 0.778 | 0.713 | 0.502 | 0.518 | 0.451 | 0.433 | 0.449 | 1.32 | 1.42 | 1.3 | 0.736 | 0.764 | 0.722 | 0.709 | 0.522 | – | – | –
NCI-H1437 | 0.329 | 0.324 | 0.343 | 0.266 | 0.267 | 0.361 | 0.308 | 0.283 | 1.24 | 1.09 | 1.04 | 1.14 | 1.24 | 1.34 | 1.08 | 1.04 | 1.17 | 0.288 | 0.326 | 1.07
LK-2 | 0.757 | – | – | 0.662 | 0.447 | 0.378 | 0.439 | 0.46 | 0.343 | 0.335 | – | 0.33 | 0.975 | 0.848 | – | 0.84 | 0.685 | 0.726 | 0.413 | 0.442
201T | 0.337 | 0.35 | 0.329 | 0.361 | 0.433 | 0.469 | 0.435 | 0.437 | 0.72 | 0.589 | 0.541 | 0.517 | 1.24 | 1.19 | 1.2 | 1.18 | – | 0.336 | – | 0.399
LOU-NH91 | 0.524 | 0.547 | 0.572 | 0.496 | 0.679 | 0.675 | 0.679 | 0.665 | 0.784 | 0.81 | 0.809 | 0.749 | 0.76 | 0.654 | 0.569 | 0.613 | – | 0.543 | 0.693 | 0.829
BEN | 0.469 | 0.488 | 0.458 | 0.467 | 0.257 | 0.258 | 0.287 | 0.243 | 0.702 | 0.681 | 0.782 | 0.582 | 0.0684 | 0.0665 | 0.0553 | 0.0529 | 0.0589 | 0.541 | – | 0.544
NCI-H647 | 0.532 | 0.402 | 0.375 | 0.407 | 0.518 | 0.611 | 0.513 | 0.461 | 0.708 | 0.383 | 0.383 | 0.381 | 1.42 | 1.14 | 1.12 | 1.17 | 1.36 | 0.39 | 0.696 | 0.519
HCC-78 | 0.468 | 0.528 | 0.452 | 0.499 | 0.695 | 0.719 | 0.591 | 0.641 | 0.592 | – | 0.636 | 0.58 | 0.725 | 0.823 | 0.7 | 0.818 | 0.62 | 0.527 | 0.674 | 0.714
NCI-H2085 | 0.447 | 0.506 | 0.481 | 0.47 | 0.867 | 0.748 | 0.752 | 0.704 | 1.03 | – | 1.14 | 0.879 | 1.16 | 1.33 | 1.13 | – | 1.07 | 0.45 | 0.694 | 0.87
NCI-H1651 | 0.478 | 0.564 | 0.492 | 0.543 | 0.338 | 0.329 | 0.339 | 0.374 | 0.543 | 0.488 | 0.468 | 0.403 | 1.34 | – | 1.05 | 1.13 | 1.21 | 0.543 | 0.35 | 0.267
NCI-H2126 | 0.375 | 0.37 | 0.368 | 0.321 | 0.514 | 0.57 | – | 0.501 | – | 1.03 | 0.894 | 0.981 | 0.883 | 0.865 | 0.851 | 0.824 | – | 0.352 | – | 0.668
NCI-H1734 | 0.348 | 0.402 | 0.346 | 0.351 | 0.382 | 0.431 | 0.368 | 0.357 | 0.673 | 0.516 | 0.48 | 0.484 | 0.938 | 1.11 | 0.758 | – | – | – | 0.389 | –
LU99A | 0.394 | 0.411 | 0.413 | 0.454 | 0.887 | 0.77 | 0.899 | 0.785 | 0.437 | 0.336 | 0.254 | 0.405 | 0.905 | 0.807 | 1.08 | 0.855 | 0.788 | 0.424 | 0.923 | 0.274
NCI-H1755 | 0.438 | 0.436 | 0.429 | 0.423 | 0.643 | 0.596 | 0.568 | 0.536 | 0.451 | 0.413 | 0.421 | 0.434 | 1.02 | 1.12 | 0.988 | 1.04 | 1.06 | 0.496 | 0.674 | 0.458
NCI-H1915 | 0.523 | 0.556 | 0.456 | 0.518 | 0.38 | 0.387 | 0.377 | 0.371 | 0.705 | 0.781 | 0.659 | 0.665 | 0.788 | 0.807 | 0.759 | 0.777 | – | – | – | –
HARA | 0.262 | 0.264 | 0.281 | 0.262 | 0.57 | 0.439 | 0.39 | 0.387 | 0.361 | 0.292 | 0.232 | 0.304 | 1.19 | 1.15 | 1.17 | 1.16 | 1.18 | – | – | 0.267
CAL-12T | 0.374 | 0.535 | 0.496 | 0.444 | 0.558 | 0.674 | 0.618 | 0.555 | 0.692 | 0.637 | 0.699 | – | 1.44 | 1.21 | 1.38 | 0.974 | 1.32 | 0.412 | – | 0.724
